In patent US8859567B2, “Hydrate of 1-{(2S)-2-amino-4-[2,4-bis(trifluoromethyl)-5,8-di-hydropyrido[3,4-D]pyrimidin-7(6H)-yl]-4-oxobutyl}-5,5-difluoro-piperidin-2-one tartrate” (LG Life Sciences Ltd., priority 2010, dated 2014):
Where a name gives a salt, the structure may show the parent alone.

Key:
Format in all cases: physicochemical
[1] = Thermal stability of the crystal form I and II, XRD analysis for change of crystal form
Protocol: About 20 mg of the sample was charged in the sample holder and mounted on Powder X-ray diffractometer to obtain the diffraction pattern in the range of 3˜40°/2θ. The diffraction patterns as obtained are attached to the present specification as FIGS. 1, 5 and 10, respectively. Specific conditions for analysis are as follows.
(§1) After 2 weeks, 4 weeks and 8 weeks, each sample was removed from Duma bottle and analyzed by XRD for identifying any change of the crystal form and HPLC for identifying the stability. For HPLC analysis the sample was dissolved in a mixture of acetonitrile/water/trifluoroacetic acid=30/70/0.1 (v/v/v) and then subjected to the analysis.

[2] = Dynamic vapor adsorption/desorption analysis; conditions: for change of crystal form with the change of humidity / weight change according to the change of external humidity: 5˜95% RH; for weight change according to the change of external humidity: 25° C.
Protocol: The dynamic vapor adsorption/desorption data were collected on VTI-SA Vapor Sorption Analyzer. While maintaining 25° C., the vapor adsorption and desorption were repeated three times at intervals of 5% RH in the range of relative humidity (RH) 5˜95%. The samples were not dried prior to the analysis. The equilibrium standard used for analysis was that the weight change within 2 minutes is less than 0.01%.

[3] = Thermal stability of the crystal form I and II, HPLC analysis
Protocol: as §1, with “analysis. The conditions for HPLC analysis are as follows:” for “analysis.”
Column: Atlantis dC18 (4.6 mm I.D×250 mm L, Particle Size 5, μm, Waters)
Column Temperature: 10° C.
Mobile phase A: MeCN/TFA=100/0.1 (v/v)
Mobile phase B: H2O/TFA=100/0.1 (v/v)
Total analysis time: 55 min.

[4] = Determination of density (bulk-density, tap-density, Carr index); conditions: for Bulk-density: 50 ml measuring cylinder; for Tap-density: ERWEKA densitometer, impulses 250 times
Protocol: Here, the samples were slowly introduced so that they are not closely contacted with each other. After reading a scale on the measuring cylinder, the weight thereof was measured to calculate the bulk-density. After measuring the bulk-density, the measuring cylinder containing the sample was put on ERWEKA densitometer and then subjected to impulses 250 times to measure the tapdensity (Table 5). […] The Can index was calculated from the bulk-density and the tap-density. […] Since it is generally understood that the lower the Carr index, the better the flowability, it could be identified by comparing the Carr indexes that the crystal form I can be easily handled in processing procedures including tabletting as compared to the crystal form II.

[5] = Powder X-ray diffraction test and weight change of the crystal form III during moisture adsorption at room temperature under atmosphere
Protocol: The crystal form III was placed on a XRD holder and subjected to XRD test over the time (after 30 minutes, 1 hour and 5 hours) while allowing the moisture adsorption at room temperature under atmosphere (see FIG. 15). In addition, the weight change at room temperature under atmosphere was recorded by times to obtain a graph (see FIG. 14).

change of the crystal form by XRD analysis ([1]; 40±2° C., 75±5% RH or 60±2° C., 5±5% RH, up to 8 weeks) | change of crystal form with the change of humidity [2] | weight change according to the change of external humidity [2] [%] | stability (HPLC) ([3]; 40° C./75% RH, 0 week) [%] | stability (HPLC) ([3]; 40° C./75% RH, 2 weeks) [%] | stability (HPLC) ([3]; 40° C./75% RH, 4 weeks) [%] | stability (HPLC) ([3]; 40° C./75% RH, 8 weeks) [%] | stability (HPLC) ([3]; 60° C./5% RH, 0 week) [%] | stability (HPLC) ([3]; 60° C./5% RH, 2 weeks) [%] | stability (HPLC) ([3]; 60° C./5% RH, 4 weeks) [%] | stability (HPLC) ([3]; 60° C./5% RH, 8 weeks) [%] | Bulk-density [4] [g/mL] | Tap-density [4] [g/mL] | moisture desorption on decreasing the humidity ([2]; after adsorption up to 95% RH) [%] | time to conversion into the crystal form I [5] | time to conversion into the crystal form I in the accelerating stability test ([1]; 40° C./75% RH) [weeks] | change of the crystal form by XRD analysis ([1]; 40° C./75% RH, at 8 week) | weight increase at 75% RH ([2]; moisture adsorption, 75% RH) [%] | Compound
did not show any change | not changed | ≤ 0.8 | 99.4 | 99.3 | 99.2 | 99.2 | 99.4 | 98.8 | 98.6 | 98.4 | 0.45 | 0.54 | – | – | – | – | – | N[C@@H](CC(=O)N1CCc2c(nc(C(F)(F)F)nc2C(F)(F)F)C1)CN1CC(F)(F)CCC1=O [crystal form I, 1-{(2S)-2-amino-4-[2,4-bis(trifluoromethyl)-5,8-dihydropyrido[3,4-d]pyrimidin-7(6H)-yl]-4-oxo-butyl}-5,5-difluoropiperidin-2-one tartrate]
– | – | ≥ 3.5 | – | – | – | – | – | – | – | – | – | – | ≤ 0.6 | within about one hour | – | – | – | N[C@@H](CC(=O)N1CCc2c(nc(C(F)(F)F)nc2C(F)(F)F)C1)CN1CC(F)(F)CCC1=O.O=C(O)C(O)C(O)C(=O)O [crystal form III]
– | converted into the crystal form I | ≥ 4.0 | 98.4 | 98.4 | 98.3 | 98.2 | 98.4 | 98.1 | 97.8 | 97.5 | 0.34 | 0.44 | – | – | ≤ 8 | converted into the crystal form I | 3.7 | N[C@@H](CC(=O)N1CCc2c(nc(C(F)(F)F)nc2C(F)(F)F)C1)CN1CC(F)(F)CCC1=O.N[C@@H](CC(=O)N1CCc2c(nc(C(F)(F)F)nc2C(F)(F)F)C1)CN1CC(F)(F)CCC1=O.O.O=C(O)C(O)C(O)C(=O)O.O=C(O)C(O)C(O)C(=O)O [crystal form II]
